Where “and” joins values, the source holds several entries; their conditions need not be identical. Equal values may be shown once. Inconclusive results and toxic doses are left out. Cut-off read from the data, not from the text of the source: active = T/C of 150% or more; inactive = T/C below 125%.
Test system: L1210 leukemia ip in BDF1 mice, survival T/C
Assay: NCI In Vivo Anticancer Drug Screen. Data for tumor model L1210 Leukemia (intraperitoneal) in B6D2F1 (BDF1) mice
Details: endpoint: mean survival time, higher = longer survival
In short: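 Ratio derived from survival: compound-dosed mice over vehicle-dosed mice, all bearing a transplantable tumor.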

[1] = dose: 100.0 mg/kg/injection, schedule: Q01DX009 (ip), vehicle: saline with Tween-80
[2] = dose: 200.0 mg/kg/injection, schedule: Q01DX009 (ip), vehicle: saline with Tween-80
[3] = dose: 100.0 mg/kg/injection, schedule: Q01DX009 (ip), vehicle: Klucel (hydroxypropylcellulose) (HPC)
[4] = dose: 100.0 mg/kg/injection, schedule: Q04DX003 (ip), vehicle: Klucel (hydroxypropylcellulose) (HPC)
[5] = dose: 200.0 mg/kg/injection, schedule: Q01DX009 (ip), vehicle: Klucel (hydroxypropylcellulose) (HPC)
[6] = dose: 200.0 mg/kg/injection, schedule: Q04DX003 (ip), vehicle: Klucel (hydroxypropylcellulose) (HPC)
[7] = dose: 400.0 mg/kg/injection, schedule: Q04DX003 (ip), vehicle: Klucel (hydroxypropylcellulose) (HPC)
[8] = dose: 100.0 mg/kg/injection, schedule: Q01DX001 (ip), vehicle: saline
[9] = dose: 200.0 mg/kg/injection, schedule: Q01DX001 (ip), vehicle: saline
[10] = dose: 400.0 mg/kg/injection, schedule: Q01DX001 (ip), vehicle: saline
[11] = dose: 150.0 mg/kg/injection, schedule: Q01DX001 (ip), vehicle: saline

Measured: T/C

O=C(CNC(=O)c1ccc(C(=O)NCC(=O)Nc2ccc(C3=NCCN3)cc2)cc1)Nc1ccc(C2=NCCN2)cc1
inactive: dose: 1.87 mg/kg/injection, schedule: Q01DX015 (ip), vehicle: methylcellulose (MC) 102 % of control | dose: 3.75 mg/kg/injection, schedule: Q01DX015 (ip), vehicle: methylcellulose (MC) 103 % of control | dose: 7.5 mg/kg/injection, schedule: Q01DX015 (ip), vehicle: methylcellulose (MC) 100 % of control | dose: 10.0 mg/kg/injection, schedule: Q01DX015 (ip), vehicle: methylcellulose (MC) 102 % of control | dose: 250.0 mg/kg/injection, schedule: Q01DX Z (ip), vehicle: carboxymethylcellulose (CMC) 106 % of control
active: dose: 62.0 mg/kg/injection, schedule: Q01DX Z (ip), vehicle: carboxymethylcellulose (CMC) 188 % of control | dose: 125.0 mg/kg/injection, schedule: Q01DX Z (ip), vehicle: carboxymethylcellulose (CMC) 233 % of control | dose: 150.0 mg/kg/injection, schedule: Q01DX001 (ip), vehicle: methylcellulose (MC) 154 % of control | dose: 300.0 mg/kg/injection, schedule: Q01DX001 (ip), vehicle: methylcellulose (MC) 158 % of control | dose: 600.0 mg/kg/injection, schedule: Q01DX001 (ip), vehicle: methylcellulose (MC) 187 % of control and 201 % of control and 207 % of control | dose: 900.0 mg/kg/injection, schedule: Q01DX001 (ip), vehicle: methylcellulose (MC) 174 % of control and 262 % of control

O=C1c2ccccc2C(=O)N1C1CCCCCCC1
inactive: dose: 100.0 mg/kg/injection, schedule: Q04DX002 (ip), vehicle: Klucel (hydroxypropylcellulose) (HPC) 94 % of control | dose: 200.0 mg/kg/injection, schedule: Q04DX002 (ip), vehicle: Klucel (hydroxypropylcellulose) (HPC) 100 % of control | dose: 400.0 mg/kg/injection, schedule: Q04DX002 (ip), vehicle: Klucel (hydroxypropylcellulose) (HPC) 97 % of control

N/N=C(\NN)c1ccccc1
inactive: [1] 92 % of control | [2] 91 % of control | dose: 400.0 mg/kg/injection, schedule: Q01DX009 (ip), vehicle: saline with Tween-80 86 % of control

COc1cc(N(CCCl)CCCl)ccc1C=Nc1ccc(-n2ccnc2)cc1
inactive: dose: 68.8 mg/kg/injection, schedule: Q04DX002 (ip), vehicle: Klucel (hydroxypropylcellulose) (HPC) 98 % of control | dose: 137.5 mg/kg/injection, schedule: Q04DX002 (ip), vehicle: Klucel (hydroxypropylcellulose) (HPC) 98 % of control | dose: 275.0 mg/kg/injection, schedule: Q04DX002 (ip), vehicle: Klucel (hydroxypropylcellulose) (HPC) 102 % of control

CC(=O)CC(C)=Nc1ccc(Cl)cc1
inactive: [3] 97 % of control | [4] 96 % of control | [5] 105 % of control | [6] 110 % of control | dose: 400.0 mg/kg/injection, schedule: Q01DX009 (ip), vehicle: Klucel (hydroxypropylcellulose) (HPC) 108 % of control | [7] 104 % of control

COC(=O)C(Br)c1cccc(OC)c1 (configuration not stated)
inactive: dose: 100.0 mg/kg/injection, schedule: Q01DX009 (ip), vehicle: saline sonified 100 % of control | dose: 100.0 mg/kg/injection, schedule: Q04DX003 (ip), vehicle: saline sonified 97 % of control | dose: 200.0 mg/kg/injection, schedule: Q01DX009 (ip), vehicle: saline sonified 120 % of control | dose: 200.0 mg/kg/injection, schedule: Q04DX003 (ip), vehicle: saline sonified 101 % of control | dose: 400.0 mg/kg/injection, schedule: Q01DX009 (ip), vehicle: saline sonified 105 % of control | dose: 400.0 mg/kg/injection, schedule: Q04DX003 (ip), vehicle: saline sonified 101 % of control

OC12CCCCC1Oc1ccc3ccccc3c12 (configuration not stated)
inactive: [8] 103 % of control | [9] 113 % of control | [10] 100 % of control

CC(C)OC(=O)c1cc(C(=O)OC(C)C)cc(S(N)(=O)=O)c1
inactive: dose: 100.0 mg/kg/injection, schedule: Q01DX001 (ip), vehicle: other 106 % of control | dose: 200.0 mg/kg/injection, schedule: Q01DX001 (ip), vehicle: other 98 % of control | dose: 400.0 mg/kg/injection, schedule: Q01DX001 (ip), vehicle: other 95 % of control

Cc1cc(N(CCCl)CCCl)ccc1C=Nc1cccc(Cl)c1
inactive: dose: 50.0 mg/kg/injection, schedule: Q01DX001 (ip), vehicle: carboxymethylcellulose (CMC) 100 % of control | dose: 100.0 mg/kg/injection, schedule: Q01DX001 (ip), vehicle: carboxymethylcellulose (CMC) 107 % of control | dose: 200.0 mg/kg/injection, schedule: Q01DX001 (ip), vehicle: carboxymethylcellulose (CMC) 100 % of control | dose: 400.0 mg/kg/injection, schedule: Q01DX001 (ip), vehicle: carboxymethylcellulose (CMC) 94 % of control

CN(O)CC(=O)O
inactive: [8] 95 % of control | [9] 98 % of control | [10] 97 % of control

Cc1ccc(S(=O)(=O)N2CC(=O)CCc3ccc(Cl)cc32)cc1
inactive: dose: 75.0 mg/kg/injection, schedule: Q01DX009 (ip), vehicle: other 100 % of control | dose: 150.0 mg/kg/injection, schedule: Q01DX009 (ip), vehicle: other 100 % of control | dose: 300.0 mg/kg/injection, schedule: Q01DX009 (ip), vehicle: other 100 % of control

Cc1ccc(S(=O)(=O)OCCN2C(=O)NC(c3ccccc3)(c3ccccc3)C2=O)cc1
inactive: dose: 3.1 mg/kg/injection, schedule: Q01DX009 (ip), vehicle: saline 104 % of control | dose: 6.25 mg/kg/injection, schedule: Q01DX009 (ip), vehicle: saline 100 % of control | dose: 12.5 mg/kg/injection, schedule: Q01DX009 (ip), vehicle: saline 104 % of control | dose: 25.0 mg/kg/injection, schedule: Q01DX009 (ip), vehicle: saline 98 % of control | dose: 50.0 mg/kg/injection, schedule: Q01DX009 (ip), vehicle: saline 100 % of control | dose: 100.0 mg/kg/injection, schedule: Q01DX009 (ip), vehicle: saline 102 % of control | dose: 150.0 mg/kg/injection, schedule: Q04DX003 (ip), vehicle: saline with Tween-80 109 % of control | dose: 225.0 mg/kg/injection, schedule: Q04DX003 (ip), vehicle: saline with Tween-80 109 % of control | dose: 335.0 mg/kg/injection, schedule: Q04DX003 (ip), vehicle: saline with Tween-80 98 % of control

O[C@H]1[C@H]2c3cc4c(cc3CN3CCC(=C[C@@H]1O)[C@H]23)OCO4
inactive: dose: 50.0 mg/kg/injection, schedule: Q01DX Z (ip), vehicle: steriod suspending solution 120 % of control | dose: 75.0 mg/kg/injection, schedule: Q01DX Z (ip), vehicle: steriod suspending solution 96 % of control and 105 % of control | dose: 100.0 mg/kg/injection, schedule: Q01DX Z (ip), vehicle: steriod suspending solution 114 % of control

O=C(O)CCC(=O)c1cccc([N+](=O)[O-])c1
inactive: dose: 50.0 mg/kg/injection, schedule: Q01DX009 (ip), vehicle: saline with Tween-80 103 % of control | [3] 95 % of control | [1] 107 % of control | [4] 91 % of control | [5] 103 % of control | [2] 87 % of control | [6] 94 % of control | [7] 94 % of control

COc1cc(Oc2cc(OC)c(OC)c(OC)c2)cc(OC)c1OC
inactive: dose: 100.0 mg/kg/injection, schedule: Q04DX003 (ip), vehicle: saline with Tween-80 97 % of control | dose: 200.0 mg/kg/injection, schedule: Q04DX003 (ip), vehicle: saline with Tween-80 101 % of control | dose: 400.0 mg/kg/injection, schedule: Q04DX003 (ip), vehicle: saline with Tween-80 97 % of control

O=[N+]([O-])c1ccc(N2N=NC(c3ccccc3)C2(c2ccccc2)N2CCOCC2)cc1 (configuration not stated)
inactive: [11] 89 % of control

CC(=O)OCC1OC(NC(=O)NCCCl)C(OC(C)=O)C(OC(C)=O)C1OC(C)=O (configuration not stated)
inactive: dose: 100.0 mg/kg/injection, schedule: Q01DX001 (ip), vehicle: Klucel (hydroxypropylcellulose) (HPC) 101 % of control | dose: 200.0 mg/kg/injection, schedule: Q01DX001 (ip), vehicle: Klucel (hydroxypropylcellulose) (HPC) 104 % of control | dose: 400.0 mg/kg/injection, schedule: Q01DX001 (ip), vehicle: Klucel (hydroxypropylcellulose) (HPC) 104 % of control

CCOP(=O)(OCC)Oc1cc(C)c(N(C)C)c(C)c1
inactive: dose: 75.0 mg/kg/injection, schedule: Q01DX001 (ip), vehicle: saline 101 % of control | [11] 90 % of control
